Test results: publication PMC3914206

Key:
Format in all cases: binding
panel of 442 kinases [1] = target: T1, panel of 442 kinases (Homo sapiens, UniProt P07948); settings: Compound Concentration 10 µM
T1 construct: purchased KINOMEscan
Excerpt: (§1) We assessed the selectivity of members of this scaffold using the KINOMEscan methodology across a near comprehensive panel of 442 kinases [[18,27]].

panel of 442 kinases [2] = target: T2, panel of 442 kinases (Homo sapiens, UniProt Q9BWU1); settings: Compound Concentration 10 µM
T2 construct: purchased KINOMEscan
T2 sequence (Q9BWU1 whole entry): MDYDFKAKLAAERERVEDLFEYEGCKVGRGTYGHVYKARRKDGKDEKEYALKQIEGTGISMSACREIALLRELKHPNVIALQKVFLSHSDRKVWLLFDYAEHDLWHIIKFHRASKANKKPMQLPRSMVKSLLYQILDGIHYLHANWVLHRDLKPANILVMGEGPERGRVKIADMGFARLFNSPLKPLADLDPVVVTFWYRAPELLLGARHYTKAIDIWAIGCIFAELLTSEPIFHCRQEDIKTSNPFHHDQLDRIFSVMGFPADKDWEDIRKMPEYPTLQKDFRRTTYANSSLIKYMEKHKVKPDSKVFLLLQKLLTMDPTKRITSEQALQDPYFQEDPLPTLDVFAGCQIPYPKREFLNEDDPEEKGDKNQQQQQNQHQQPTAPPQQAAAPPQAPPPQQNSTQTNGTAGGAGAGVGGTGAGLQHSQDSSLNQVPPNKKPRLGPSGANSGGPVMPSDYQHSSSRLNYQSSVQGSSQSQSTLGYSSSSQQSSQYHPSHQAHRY
Excerpt: as §1

panel of 442 kinases [3] = target: T3, panel of 442 kinases (Homo sapiens, UniProt Q16620); settings: kinase TRKB; compound concentration 10 µM
T3 construct: purchased KINOMEscan
T3 sequence (Q16620 32-822): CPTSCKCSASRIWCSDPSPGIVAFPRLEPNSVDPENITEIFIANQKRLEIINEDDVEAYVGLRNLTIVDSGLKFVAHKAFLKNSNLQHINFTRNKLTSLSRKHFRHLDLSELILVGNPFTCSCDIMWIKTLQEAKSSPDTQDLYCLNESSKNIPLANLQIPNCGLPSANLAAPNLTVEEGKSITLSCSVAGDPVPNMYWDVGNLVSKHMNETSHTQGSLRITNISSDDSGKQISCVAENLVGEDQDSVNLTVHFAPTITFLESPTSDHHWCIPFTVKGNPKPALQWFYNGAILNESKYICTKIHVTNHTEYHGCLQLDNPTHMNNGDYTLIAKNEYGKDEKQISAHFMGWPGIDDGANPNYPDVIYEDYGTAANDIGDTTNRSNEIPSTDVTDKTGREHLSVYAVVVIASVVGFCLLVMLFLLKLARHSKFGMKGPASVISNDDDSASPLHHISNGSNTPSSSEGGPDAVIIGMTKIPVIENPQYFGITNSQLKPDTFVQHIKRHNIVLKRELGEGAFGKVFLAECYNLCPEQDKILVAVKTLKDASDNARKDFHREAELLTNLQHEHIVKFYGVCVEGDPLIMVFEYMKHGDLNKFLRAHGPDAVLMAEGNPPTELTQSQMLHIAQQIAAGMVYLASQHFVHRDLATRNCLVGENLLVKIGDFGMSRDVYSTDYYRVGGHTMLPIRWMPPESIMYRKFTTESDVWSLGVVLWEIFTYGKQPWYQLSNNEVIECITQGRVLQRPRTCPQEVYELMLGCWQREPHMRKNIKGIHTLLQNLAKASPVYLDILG
Excerpt: as §1

T1 sequence (P07948 whole entry): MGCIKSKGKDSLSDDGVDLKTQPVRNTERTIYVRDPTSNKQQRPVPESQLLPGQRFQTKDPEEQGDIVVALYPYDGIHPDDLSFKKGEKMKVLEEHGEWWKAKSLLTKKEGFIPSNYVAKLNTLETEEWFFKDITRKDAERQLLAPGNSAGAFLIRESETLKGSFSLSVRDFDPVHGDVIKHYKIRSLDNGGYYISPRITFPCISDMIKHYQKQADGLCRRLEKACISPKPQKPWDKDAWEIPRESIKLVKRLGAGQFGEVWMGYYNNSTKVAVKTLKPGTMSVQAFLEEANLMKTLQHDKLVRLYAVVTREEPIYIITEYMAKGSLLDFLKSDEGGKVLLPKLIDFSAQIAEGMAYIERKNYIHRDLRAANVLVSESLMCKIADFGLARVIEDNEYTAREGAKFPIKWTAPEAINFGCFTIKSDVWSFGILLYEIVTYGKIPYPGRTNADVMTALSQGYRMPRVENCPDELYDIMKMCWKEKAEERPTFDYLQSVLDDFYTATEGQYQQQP

Row | SMILES | KINOMEscan: LYN (panel of 442 kinases [1]) | KINOMEscan: CDK11 (panel of 442 kinases [2]) | % Ctrl, TRKB (panel of 442 kinases [3])
1 | COc1cc(C(=O)N2CCC(N3CCN(C)CC3)CC2)ccc1Nc1ncc2c(n1)N(C)c1ccccc1C(=O)N2C [15 (LRRK2-IN-1)] | 100 | 100 | 100 % Ctrl
2 | CCOc1cc(C(=O)N2CCC(N3CCN(C)CC3)CC2)ccc1Nc1ncc2c(n1)N(C1CCCC1)c1ccccc1C(=O)N2C [Compound 26] | 100 | 100 | 100 % Ctrl
3 | COc1cc(C(=O)N2CCC(N3CCN(C)CC3)CC2)ccc1Nc1ncc2c(n1)N1CCc3cccc(c31)C(=O)N2C [Compound 24] | 83 | 96 | 
4 | COc1cc(C(=O)N2CCC(N3CCN(C)CC3)CC2)ccc1Nc1ncc2c(n1)N(C1CCCC1)c1ccccc1C(=O)N2C [Compound 25, 11-cyclopentyl-2-((2-methoxy-4-(4-(4-methylpiperazin-1-yl)piperidine-1-carbonyl)phenyl)amino)-5-methyl-5H-benzo[e]pyrimido[5,4-b][1,4]diazepin-6(11H)-one] | 85 | 87 | 83 % Ctrl
